Test results reported in patent US20250241894A1, “TREATMENT OF MENTAL DISORDERS” (GH RESEARCH IRELAND LIMITED, priority 2022, published 2025).

Test system: patients with treatment-resistant major depressive disorder (TRD)
Experiment: Phase 1/2 clinical trial of inhaled 5-MeO-DMT in TRD: Part A single dose 12 mg or 18 mg; Part B individualized dosing regimen (IDR) 6, 12, 18 mg in a single day
Description: Patients were assigned to different groups. In the context of the present invention, the group who received a single, 12 mg dose and the group who underwent an intra-day individualized dosing regimen (IDR) that allowed for multiple, escalating doses (6 mg, 12 mg and 18 mg) within a single day, driven by the intensity of the patient-reported psychedelic experience are of interest.
This trial was designed in two parts. Part A was an open-label, single-arm, single-dose Phase 1 trial with two dose levels (12 mg (n=4) and 18 mg (n=4)). […] The primary endpoint of Part B was to assess the effects on the severity of depression, as assessed by the proportion of patients in remission on day seven after dosing, defined as a MADRS total score of less than or equal to 10.

[1] = 12 mg n=4, 2 hours, baseline 16

## COc1ccc2[nH]cc(CCN(C)C)c2c1 [5-MeO-DMT]
12 mg n=4, 2 hours, baseline 8
  MADRS Suicidal Thoughts improvement: 5 points
12 mg n=4, 2 hours, baseline 13
  MADRS Inner Tension improvement: 11 points
[1]
  MADRS Concentration Difficulties improvement: 9 points
  MADRS Inability to Feel improvement: 7 points
  MADRS Lassitude improvement: 6 points
  MADRS Pessimistic Thoughts improvement: 8 points
12 mg n=4, 3 hours, baseline 11
  BPRS Blunted Affect improvement: 3 points
12 mg n=4, 3 hours, baseline 13
  BPRS Emotional Withdrawal improvement: 2 points
12 mg n=4, 3 hours, baseline 14
  BPRS Tension improvement: 5 points
12 mg n=4, 3 hours, baseline 18
  BPRS Guilt Feelings improvement: 9 points
12 mg n=4, 3 hours, baseline 25
  BPRS Anxiety improvement: 14 points
12 mg n=4, Day 1, baseline 8
  MADRS Suicidal Thoughts improvement: 3 points
12 mg n=4, Day 1, baseline 11
  BPRS Blunted Affect improvement: 5 points
12 mg n=4, Day 1, baseline 12
  MADRS Reduced Sleep improvement: 2 points
12 mg n=4, Day 1, baseline 13
  BPRS Emotional Withdrawal improvement: 5 points
  MADRS Inner Tension improvement: 10 points
12 mg n=4, Day 1, baseline 14
  BPRS Tension improvement: 8 points
12 mg n=4, Day 1, baseline 16
  MADRS Concentration Difficulties improvement: 14 points
  MADRS Inability to Feel improvement: 15 points
  MADRS Lassitude improvement: 16 points
  MADRS Pessimistic Thoughts improvement: 9 points
12 mg n=4, Day 1, baseline 18
  BPRS Guilt Feelings improvement: 13 points
12 mg n=4, Day 1, baseline 25
  BPRS Anxiety improvement: 19 points
12 mg n=4, Day 7, baseline 8
  MADRS Suicidal Thoughts improvement: 1 points
12 mg n=4, Day 7, baseline 11
  BPRS Blunted Affect improvement: 6 points
12 mg n=4, Day 7, baseline 12
  MADRS Reduced Sleep improvement: 6 points
12 mg n=4, Day 7, baseline 13
  BPRS Emotional Withdrawal improvement: 7 points
  MADRS Inner Tension improvement: 8 points
12 mg n=4, Day 7, baseline 14
  BPRS Tension improvement: 8 points
12 mg n=4, Day 7, baseline 16
  MADRS Concentration Difficulties improvement: 13 points
  MADRS Inability to Feel improvement: 15 points
  MADRS Lassitude improvement: 13 points
  MADRS Pessimistic Thoughts improvement: 8 points
12 mg n=4, Day 7, baseline 18
  BPRS Guilt Feelings improvement: 13 points
12 mg n=4, Day 7, baseline 25
  BPRS Anxiety improvement: 19 points
IDR n=8, 2 hours, baseline 11
  MADRS Suicidal Thoughts improvement: 8 points
IDR n=8, 2 hours, baseline 26
  MADRS Inner Tension improvement: 15 points
IDR n=8, 2 hours, baseline 27
  MADRS Lassitude improvement: 17 points
IDR n=8, 2 hours, baseline 28
  MADRS Pessimistic Thoughts improvement: 21 points
IDR n=8, 2 hours, baseline 30
  MADRS Concentration Difficulties improvement: 19 points
IDR n=8, 2 hours, baseline 36
  MADRS Inability to Feel improvement: 24 points
IDR n=8, 3 hours, baseline 13
  BPRS Emotional Withdrawal improvement: 5 points
IDR n=8, 3 hours, baseline 15
  BPRS Blunted Affect improvement: 4 points
IDR n=8, 3 hours, baseline 16
  BPRS Tension improvement: 5 points
IDR n=8, 3 hours, baseline 34
  BPRS Guilt Feelings improvement: 20 points
IDR n=8, 3 hours, baseline 37
  BPRS Anxiety improvement: 18 points
IDR n=8, Day 1, baseline 11
  MADRS Suicidal Thoughts improvement: 10 points
IDR n=8, Day 1, baseline 13
  BPRS Emotional Withdrawal improvement: 5 points
IDR n=8, Day 1, baseline 15
  BPRS Blunted Affect improvement: 7 points
IDR n=8, Day 1, baseline 16
  BPRS Tension improvement: 5 points
IDR n=8, Day 1, baseline 25
  MADRS Reduced Sleep improvement: 13 points
IDR n=8, Day 1, baseline 26
  MADRS Inner Tension improvement: 20 points
IDR n=8, Day 1, baseline 27
  MADRS Lassitude improvement: 22 points
IDR n=8, Day 1, baseline 28
  MADRS Pessimistic Thoughts improvement: 24 points
IDR n=8, Day 1, baseline 30
  MADRS Concentration Difficulties improvement: 29 points
IDR n=8, Day 1, baseline 34
  BPRS Guilt Feelings improvement: 23 points
IDR n=8, Day 1, baseline 36
  MADRS Inability to Feel improvement: 34 points
IDR n=8, Day 1, baseline 37
  BPRS Anxiety improvement: 21 points
IDR n=8, Day 7, baseline 11
  MADRS Suicidal Thoughts improvement: 8 points
IDR n=8, Day 7, baseline 13
  BPRS Emotional Withdrawal improvement: 5 points
IDR n=8, Day 7, baseline 15
  BPRS Blunted Affect improvement: 7 points
IDR n=8, Day 7, baseline 16
  BPRS Tension improvement: 6 points
IDR n=8, Day 7, baseline 25
  MADRS Reduced Sleep improvement: 16 points
IDR n=8, Day 7, baseline 26
  MADRS Inner Tension improvement: 14 points
IDR n=8, Day 7, baseline 27
  MADRS Lassitude improvement: 24 points
IDR n=8, Day 7, baseline 28
  MADRS Pessimistic Thoughts improvement: 25 points
IDR n=8, Day 7, baseline 30
  MADRS Concentration Difficulties improvement: 21 points
IDR n=8, Day 7, baseline 34
  BPRS Guilt Feelings improvement: 24 points
IDR n=8, Day 7, baseline 36
  MADRS Inability to Feel improvement: 30 points
IDR n=8, Day 7, baseline 37
  BPRS Anxiety improvement: 20 points
Part A 12 mg and 18 mg
  SAEs: No SAEs
  Severity and outcome of ADRs: mild and resolved spontaneously
Part A 12 mg n=4, day seven
  Proportion of patients in MADRS remission: 50%
Part A 18 mg n=4, day seven
  Further patients with MADRS clinical response: 25%
  Proportion of patients in MADRS remission: 25%
Part B IDR
  Outcome of ADRs: resolved spontaneously
  SAEs: No SAEs
Part B IDR n=8, day seven
  Proportion of patients in MADRS remission (total score <=10): 87.5%
